Results reported in US5747466A, “3-deoxy-3-descladinose derivatives of erythromycins A and B” (Abbott Laboratories, priority 1996, dated 1998).
Like-named read-outs stand apart in the source and are kept apart here.

Assays:
Experiment in all cases: In vitro antibacterial activity (MIC), agar dilution
[1] = test system: PROVIDENCIA STUARTII CMX 640; assay type: cell-based
[2] = test system: M[…] ATCC 4698; assay type: cell-based, Micrococcus luteus; details: M. luteus ATCC 4698; BHI agar, 35-37 °C, 20-24 h
Protocol: (§1) Representative compounds of the present invention were assayed in vitro for antibacterial activity as follows: Twelve petri dishes containing successive aqueous dilutions of the test compound mixed with 10 mL of sterilized Brain Heart Infusion (BHI) agar (Difco 0418-01-5) were prepared. Each plate was inoculated with 1:100 (or 1:10 for slow-growing strains, such as Micrococcus and Streptococcus) dilutions of up to 32 different microorganisms, using a Steers replicator block. The inoculated plates were incubated at 35°-37° C. for 20 to 24 hours. In addition, a control plate, using BHI agar containing no test compound, was prepared and incubated at the beginning and end of each test.
(§2) An additional plate containing a compound having known susceptibility patterns for the organisms being tested and belonging to the same antibiotic class as the test compound was also prepared and incubated as a further control, as well as to provide test-to-test comparability. Erythromycin A was used for this purpose.
(§3) After incubation, each plate was examined. The minimum inhibitory concentration (MIC) was defined as the lowest concentration of drug yielding no growth, a slight haze, or sparsely isolated colonies on the inoculum spot as compared to the growth control.

[3] = test system: M[…] ATCC 9341; assay type: cell-based, Micrococcus luteus; details: M. luteus ATCC 9341; BHI agar, 35-37 °C, 20-24 h
Protocol: as §1, §2, §3

[4] = test system: STAPHYLOCOCCUS AUREUS CMX 642A; assay type: cell-based; details: S. aureus CMX 642A; BHI agar, 35-37 °C, 20-24 h
[5] = test system: PSEUDOMONAS AERUGINOSA 5007; assay type: cell-based; details: P. aeruginosa 5007; BHI agar, 35-37 °C, 20-24 h
[6] = test system: STAPHYLOCOCCUS AUREUS A-5278; assay type: cell-based; details: S. aureus A-5278; BHI agar, 35-37 °C, 20-24 h
[7] = test system: STAPHYLOCOCCUS AUREUS NCTC10649M; assay type: cell-based; details: S. aureus NCTC10649M; BHI agar, 35-37 °C, 20-24 h
[8] = test system: STREPTOCOCCUS BOVIS A-5169; assay type: cell-based; details: S. bovis A-5169; BHI agar, 35-37 °C, 20-24 h
[9] = test system: STAPHYLOCOCCUS EPIDERMIDIS 3519; assay type: cell-based
[10] = test system: NOCARDIA ARSTEROIDES ATCC 9970; assay type: cell-based; details: Nocardia ATCC 9970; BHI agar, 35-37 °C, 20-24 h
[11] = test system: STAPHYLOCOCCUS AUREUS ATCC 6538P; assay type: cell-based; details: S. aureus ATCC 6538P; BHI agar, 35-37 °C, 20-24 h
[12] = test system: MYCOBACTERIUM SMEGMATIS ATCC 114; assay type: cell-based; details: M. smegmatis ATCC 114; BHI agar, 35-37 °C, 20-24 h
[13] = test system: EN[…] ATCC 8043; assay type: cell-based, Enterococcus faecium; details: E. faecium ATCC 8043; BHI agar, 35-37 °C, 20-24 h
Protocol: as §1, §2, §3

[14] = test system: ACINETOBACTER CALCOACETICUS CMX 669; assay type: cell-based; details: A. calcoaceticus CMX 669; BHI agar, 35-37 °C, 20-24 h
[15] = test system: CANDIDA ALBICANS CCH 442; assay type: cell-based; details: C. albicans CCH 442; BHI agar, 35-37 °C, 20-24 h
[16] = test system: STAPHYLOCOCCUS AUREUS CMX 553; assay type: cell-based; details: S. aureus CMX 553; BHI agar, 35-37 °C, 20-24 h
[17] = test system: ESCHERICHIA COLI H560; assay type: cell-based; details: E. coli H560; BHI agar, 35-37 °C, 20-24 h
[18] = test system: ESCHERICHIA COLI DC-2; assay type: cell-based; details: E. coli DC-2; BHI agar, 35-37 °C, 20-24 h
[19] = test system: ESCHERICHIA COLI KNK 437; assay type: cell-based
[20] = test system: STR[…] 508; assay type: cell-based, Streptococcus agalactiae; details: S. agalactiae CMX 508; BHI agar, 35-37 °C, 20-24 h
Protocol: as §1, §2, §3

[21] = test system: STREPTOCOCCUS PYOGENES EES61; assay type: cell-based; details: S. pyogenes EES61; BHI agar, 35-37 °C, 20-24 h
[22] = test system: KLEBSIELLA PNEUMONIAE ATCC 8045; assay type: cell-based; details: K. pneumoniae ATCC 8045; BHI agar, 35-37 °C, 20-24 h
[23] = test system: STAPHYLOCOCCUS AUREUS 1775; assay type: cell-based; details: S. aureus 1775; BHI agar, 35-37 °C, 20-24 h
[24] = test system: PSEUDOMONAS AERUGINOSA DPHD-2862; assay type: cell-based; details: P. aeruginosa DPHD-2862; BHI agar, 35-37 °C, 20-24 h
[25] = test system: PSEUDOMONAS AERUGINOSA K799/61; assay type: cell-based; details: P. aeruginosa K799/61; BHI agar, 35-37 °C, 20-24 h
[26] = test system: ESCHERICHIA COLI SS; assay type: cell-based; details: E. coli SS; BHI agar, 35-37 °C, 20-24 h
[27] = P. stuartii CMX 640, BHI agar, 35-37 °C, 20-24 h
[28] = S. epidermidis 3519, BHI agar, 35-37 °C, 20-24 h
[29] = E. coli KNK 437, BHI agar, 35-37 °C, 20-24 h

SMILES	minimum inhibitory concentration (MIC) [2]	minimum inhibitory concentration (MIC) [3]	minimum inhibitory concentration (MIC) [4]	minimum inhibitory concentration (MIC) [5]	minimum inhibitory concentration (MIC) [6]	minimum inhibitory concentration (MIC) [7]	minimum inhibitory concentration (MIC) [8]	minimum inhibitory concentration (MIC) [10]	minimum inhibitory concentration (MIC) [11]	minimum inhibitory concentration (MIC) [12]	minimum inhibitory concentration (MIC) [13]	minimum inhibitory concentration (MIC) [15]	minimum inhibitory concentration (MIC) [16]	minimum inhibitory concentration (MIC) [17]	minimum inhibitory concentration (MIC) [18]	minimum inhibitory concentration (MIC) [20]	minimum inhibitory concentration (MIC) [21]	minimum inhibitory concentration (MIC) [22]	minimum inhibitory concentration (MIC) [23]	minimum inhibitory concentration (MIC) [24]	other results
CC[C@H]1OC(=O)[C@H](C)C[C@H](C)[C@@H](O[C@@H]2O[C@H](C)C[C@H](N(C)C)[C@H]2O)[C@](C)(OC)C[C@@H](C)C(=O)[C@H](C)[C@H]2N(CCc3ccc(Oc4ccccc4)cc3)C(=O)O[C@]12C [Ex. 5]	1.56	3.1	12.5	> 100	25	6.2	1.56	3.1	12.5	3.1	1.56	100	6.2	> 100	12.5	1.56	1.56	> 100	25	> 100	minimum inhibitory concentration (MIC) [1, 27]: > 100; minimum inhibitory concentration (MIC) [9, 28]: 12.5; minimum inhibitory concentration (MIC) [14]: > 100; minimum inhibitory concentration (MIC) [19, 29]: > 100; minimum inhibitory concentration (MIC) [25]: > 100
CC[C@H]1OC(=O)[C@H](C)[C@@H](O[C@H]2C[C@@](C)(OC)[C@@H](O)[C@H](C)O2)[C@H](C)[C@@H](O[C@@H]2O[C@H](C)C[C@H](N(C)C)[C@H]2O)[C@](C)(O)C[C@@H](C)C(=O)[C@H](C)[C@@H](O)[C@]1(C)O [Ery A, Erythromycin A, reference compound]	0.2	0.02	0.2	> 100	> 100	0.2	0.02	0.05	0.1	25	0.05	> 100	0.2	25	100	0.02	0.02	25	> 100	100	minimum inhibitory concentration (MIC) [1]: > 100; minimum inhibitory concentration (MIC) [9]: 0.1; minimum inhibitory concentration (MIC) [26]: 0.2; minimum inhibitory concentration (MIC) [19]: 100; minimum inhibitory concentration (MIC) [25]: 1.56
CC[C@H]1OC(=O)[C@H](C)C[C@H](C)[C@@H](O[C@@H]2O[C@H](C)C[C@H](N(C)C)[C@H]2O)[C@](C)(OC)C[C@@H](C)C(=NOC)[C@H](C)[C@@H](O)[C@]1(C)O [Ex. 6]	0.39	0.39	6.2	> 100	> 100	6.2	0.39	0.78	6.2	3.1	0.78	> 100	6.2	50	0.78	0.39	0.39	> 100	> 100	> 100	minimum inhibitory concentration (MIC) [1, 27]: 100; minimum inhibitory concentration (MIC) [9, 28]: 12.5; minimum inhibitory concentration (MIC) [14]: > 100; minimum inhibitory concentration (MIC) [19, 29]: 25; minimum inhibitory concentration (MIC) [25]: > 100
